From paper PMC11079024, “Identification of a family of species-selective complex I inhibitors as potential anthelmintics” (Nature Communications, 2024)
Several values for one entry are separate records, joined by “and”; a condition that tells them apart may be missing. Equal entries are not always repeated. Where two headings read alike, the source gives them in different places.

Assays:
[1] = system: HEK293 cells
[2] = target: P. pacificus complex I (Pristionchus pacificus, UniProt A0A454XZ18+A0A8R1Z3U8+A4UAP3); assay: In vitro complex I activity assay, P. pacificus mitochondria; format: biochemical
Protocol: Mitochondria were isolated from the following free-living nematode strains: C. elegans—N2, CB3474, ECA882, ECA917, ECA1075, ECA1080; C. briggsae—AF16; P. pacificus—PS312; and P. hermaphrodita—B178. With the exception of the P. hermaphrodita strain B178, adult worms of each strain were grown in bulk through liquid culture to obtain mitochondria in sufficient quantities. Due to poor growth in liquid media, mixed stage populations of P. hermaphrodita were washed off and collected from NGM plates seeded with OP50. The isolation of mitochondria from all free-living nematode strains followed the protocol previously outlined in Burns et al.[24]. In brief, a 1 L saturated culture of E. coli HB101 was concentrated 20-fold in 50 mL complete S-medium. ~500,000 L1 worms synchronized from an embryo preparation performed the day prior were added to the S-media/HB101 suspension and grown to adulthood over the course of 3.5 days at 20 °C with shaking at 165 rpm. Following growth, worms were collected in 10 ×15 mL conical tubes and washed 7 times in M9 buffer. Worm suspensions were then combined into a single 15 mL conical tube and diluted to a final volume of 15 mL with M9 buffer. 1 mL aliquots of worm suspension were then distributed to 15 × 1.5 mL screw-cap microcentrifuge tubes and were pelleted at 500 g for 1 min. Excess M9 was aspirated without disturbing the worm pellet. 600 μL ice-cold isolate buffer A (250 mM sucrose, 10 mM Tris (pH 7.5), 1 mM EDTA, 1 mM PMSF (freshly prepared)) and 300 μL cold glass beads were then added to each tube. Tubes were incubated on ice for 10 min, and the worms were then lysed by bead beating (6 x 30 s, with 1 min cooling intervals). Tubes containing worm lysate were centrifuged at 1,000 g for 10 min at 4 °C and the supernatant was transferred to 15 new microcentrifuge tubes on ice. The tubes were centrifuged a second time at 1,000 g for 10 min at 4 °C and the supernatant was once again transferred to 15 new microcentrifuge tubes on ice. These tubes were then centrifuged at 16,000 g for 10 min at 4 °C. The resulting mitochondrial pellet was washed twice by re-suspension in 300 μL of ice-cold isolate buffer B (250 mM sucrose, 10 mM Tris (pH 7.5), 1 mM EDTA). Following the final wash, isolation buffer was aspirated from each tube and the pellets were flash-frozen in ethanol/dry ice and stored at −80 °C until needed.
The enzymatic activities of individual ETC complexes (I-IV) were assessed spectrophotometrically in isolated mitochondria using a Varioskan LUX Multimode plate reader (ThermoFisher Scientific). Mitochondrial pellets previously isolated were thawed on ice and resuspended in ice-cold isolation buffer (250 mM sucrose, 10 mM Tris (pH 7.5), 1 mM EDTA). The BCA assay (Walker, 1994) was used to quantify the protein concentration of mitochondria suspensions; solutions were diluted to a concentration of 0.2 mg/mL for use in all assays. For the complex I assay, mitochondria pellets were freeze-thawed on ice three times to increase enzyme accessibility. […] 20 μL mitochondria suspension was then added/mixed with a pipette to initiate the reaction. Immediately following the addition of mitochondria, absorbance was measured (complex I and II: 600 nm; complex III and IV: 550 nm) in 30 s intervals over 15 min. Enzymatic activity was determined in each reaction by plotting absorbance versus time and calculating the slope of the curve during the initial linear phase of the reaction. […] Percent activity of each complex was calculated by dividing the enzyme-specific activity of each well by the enzyme-specific activity of the corresponding solvent controls.
Chemical solutions were prepared in complex I assay buffer composed of 25 mM KPi buffer (pH 7.5), 3 mg/mL bovine serum albumin (BSA), 80 μM NADH, 60 μM decylubiquinone, 160 μM DCIP, 2 μM antimycin A and 2 mM KCN. […]

[3] = system: C. elegans; assay: C. elegans chemical screens of RIKEN NPD libraries at 50 μM (hit identification in KCN survival and development/viability assays); format: cell-based, Caenorhabditis elegans; settings: screened at 50 μM in triplicate, KCN = KCN survival assay, Dev. & Viability = development/viability assay
[4] = dose 0.4 µM, individual replicate (Rep)
[5] = dose 0.8 µM, individual replicate (Rep)
[6] = dose 6.3 µM, individual replicate (Rep)
[7] = dose 3.1 µM, individual replicate (Rep)
[8] = dose 12.5 µM, individual replicate (Rep)
[9] = dose 25 µM, individual replicate (Rep)
[10] = dose 50 µM, individual replicate (Rep)

O=C(NCCc1ccc(Cl)cc1)c1ccccc1C(F)(F)F [Wact-11]
HEK293 viability [1]: 0.997
HEK293 viability ([1]; dose 0.4 µM, Mean of replicates): 0.929
HEK293 viability [1, 4]: 0.886 and 0.902
HEK293 viability ([1]; dose 0.8 µM, Mean of replicates): 0.971
HEK293 viability [1, 5]: 0.916
HEK293 viability ([1]; dose 6.3 µM, Mean of replicates): 0.986
HEK293 viability [1, 6]: 0.982 and 0.975
CC50 ([1]; read-out: HEK293 Cell Viability Assay LC50, 2 days exposure): > 50 µM

Cc1nc2ccccc2n1Cc1ccc(Cl)cc1 [STK697993]
remaining activity at 0.0001 µM ([2]; P. pacificus mitochondria, 0.0001 µM, Mean, read-out: in vitro complex I activity relative to solvent control): 94.6%
in vitro complex I activity relative to solvent control ([2]; P. pacificus mitochondria, 0.0001 µM, single replicate): 101.484% and 94.523%
remaining activity at 0.0001 µM ([2]; P. pacificus mitochondria, 0.0001 µM, single replicate, read-out: in vitro complex I activity relative to solvent control): 87.6%
remaining activity at 0.0005 µM ([2]; P. pacificus mitochondria, 0.0005 µM, Mean, read-out: in vitro complex I activity relative to solvent control): 77.4%
in vitro complex I activity relative to solvent control ([2]; P. pacificus mitochondria, 0.0005 µM, single replicate): 88.361% and 49.299%
remaining activity at 0.001 µM ([2]; P. pacificus mitochondria, 0.001 µM, Mean, read-out: in vitro complex I activity relative to solvent control): 107%
in vitro complex I activity relative to solvent control ([2]; P. pacificus mitochondria, 0.001 µM, single replicate): 104.362% and 121.410% and 94.602%
remaining activity at 0.0025 µM ([2]; P. pacificus mitochondria, 0.0025 µM, Mean, read-out: in vitro complex I activity relative to solvent control): 102%
in vitro complex I activity relative to solvent control ([2]; P. pacificus mitochondria, 0.0025 µM, single replicate): 89.591% and 126.458% and 89.566%
remaining activity at 0.005 µM ([2]; P. pacificus mitochondria, 0.005 µM, Mean, read-out: in vitro complex I activity relative to solvent control): 96.6%
in vitro complex I activity relative to solvent control ([2]; P. pacificus mitochondria, 0.005 µM, single replicate): 89.435% and 110.953% and 89.424%
remaining activity at 0.013 µM ([2]; P. pacificus mitochondria, 0.013 µM, Mean, read-out: in vitro complex I activity relative to solvent control): 82.8%
in vitro complex I activity relative to solvent control ([2]; P. pacificus mitochondria, 0.013 µM, single replicate): 85.370% and 80.753%
remaining activity at 0.013 µM ([2]; P. pacificus mitochondria, 0.013 µM, single replicate, read-out: in vitro complex I activity relative to solvent control): 82.3%
remaining activity at 0.025 µM ([2]; P. pacificus mitochondria, 0.025 µM, Mean, read-out: in vitro complex I activity relative to solvent control): 81.8%
in vitro complex I activity relative to solvent control ([2]; P. pacificus mitochondria, 0.025 µM, single replicate): 78.182% and 98.911% and 68.184%
remaining activity at 0.063 µM ([2]; P. pacificus mitochondria, 0.063 µM, Mean, read-out: in vitro complex I activity relative to solvent control): 55.6%
in vitro complex I activity relative to solvent control ([2]; P. pacificus mitochondria, 0.063 µM, single replicate): 59.066% and 53.138%
remaining activity at 0.063 µM ([2]; P. pacificus mitochondria, 0.063 µM, single replicate, read-out: in vitro complex I activity relative to solvent control): 54.5%
remaining activity at 0.125 µM ([2]; P. pacificus mitochondria, 0.125 µM, Mean, read-out: in vitro complex I activity relative to solvent control): 36.1%
in vitro complex I activity relative to solvent control ([2]; P. pacificus mitochondria, 0.125 µM, single replicate): 35.771% and 33.806%
remaining activity at 0.125 µM ([2]; P. pacificus mitochondria, 0.125 µM, single replicate, read-out: in vitro complex I activity relative to solvent control): 38.7%
remaining activity at 0.313 µM ([2]; P. pacificus mitochondria, 0.313 µM, Mean, read-out: in vitro complex I activity relative to solvent control): 20.5%
in vitro complex I activity relative to solvent control ([2]; P. pacificus mitochondria, 0.313 µM, single replicate): 25.713% and 19.065%
remaining activity at 0.313 µM ([2]; P. pacificus mitochondria, 0.313 µM, single replicate, read-out: in vitro complex I activity relative to solvent control): 16.8%
remaining activity at 0.625 µM ([2]; P. pacificus mitochondria, 0.625 µM, Mean, read-out: in vitro complex I activity relative to solvent control): 17.3%
in vitro complex I activity relative to solvent control ([2]; P. pacificus mitochondria, 0.625 µM, single replicate): 22.397% and 7.371% and 22.004%
remaining activity at 1.5 µM ([2]; P. pacificus mitochondria, 1.5 µM, Mean, read-out: in vitro complex I activity relative to solvent control): 18.5%
in vitro complex I activity relative to solvent control ([2]; P. pacificus mitochondria, 1.5 µM, single replicate): 23.927% and 2.400% and 29.263%
remaining activity at 3 µM ([2]; P. pacificus mitochondria, 3 µM, Mean, read-out: in vitro complex I activity relative to solvent control): 15.2%
in vitro complex I activity relative to solvent control ([2]; P. pacificus mitochondria, 3 µM, single replicate): 21.335% and 0.000% and 24.340%
remaining activity at 15 µM ([2]; P. pacificus mitochondria, 15 µM, Mean, read-out: in vitro complex I activity relative to solvent control): 7.59%
in vitro complex I activity relative to solvent control ([2]; P. pacificus mitochondria, 15 µM, single replicate): 11.369% and 0.506% and 10.901%
remaining activity at 37.5 µM ([2]; P. pacificus mitochondria, 37.5 µM, Mean, read-out: in vitro complex I activity relative to solvent control): 7.5%
in vitro complex I activity relative to solvent control ([2]; P. pacificus mitochondria, 37.5 µM, single replicate): 6.933% and 4.878% and 10.703%
remaining activity at 75 µM ([2]; P. pacificus mitochondria, 75 µM, Mean, read-out: in vitro complex I activity relative to solvent control): 4.35%
in vitro complex I activity relative to solvent control ([2]; P. pacificus mitochondria, 75 µM, single replicate): 3.580% and 5.152%
remaining activity at 75 µM ([2]; P. pacificus mitochondria, 75 µM, single replicate, read-out: in vitro complex I activity relative to solvent control): 4.33%
IC50 ([2]; purified mitochondria): 70 nM

COc1cc2c(cc1OC)C(/C=C/c1ccc(N(C)C)cc1)=NCC2 [NPD6303]
Hit Type ([3]; […]): KCN

COc1cc2c(cc1OC)C(C(C)c1ccc(CC(C)C)cc1)=NCC2 (centres unmarked) [NPD10504]
Hit Type ([3]; […]): KCN

Cc1cc(O)c2c(c1)O[C@@]1(C)CC[C@H]3C(C)(C)CCC[C@]34CO[C@@H]2[C@H]41 [Siccanin]
HEK293 viability [1, 4]: 0.916
HEK293 viability [1, 5]: 0.884
HEK293 viability [1, 7]: 0.838 and 0.744
HEK293 viability [1, 6]: 0.943 and 0.986
HEK293 viability [1, 8]: 0.861 and 0.895 and 0.672
HEK293 viability [1, 9]: 0.599 and 0.475 and 0.289
HEK293 viability [1, 10]: 0.058 and 0.057
Hit Type ([3]; hit = modified z-score < −3): KCN

COc1cc2c(cc1OC)C(c1ccc(-c3ccc(Cl)c(Cl)c3)o1)=NCC2 [NPD3577]
Hit Type ([3]; […]): KCN

C=C(C)[C@H]1Cc2c(ccc3c2O[C@@H]2COc4cc(OC)c(OC)cc4[C@@H]2C3=O)O1 [Rotenone, reference compound]
HEK293 viability [1, 4]: 0.393 and 0.409 and 0.194
HEK293 viability [1, 5]: 0.340 and 0.322
HEK293 viability [1, 7]: 0.488 and 0.455
HEK293 viability [1, 6]: 0.380 and 0.286
HEK293 viability [1, 8]: 0.265
HEK293 viability [1, 9]: 0.242 and 0.200
HEK293 viability [1, 10]: 0.196 and 0.203
